Key:
[1] = target: Sphingosine 1-phosphate receptor 3 (Homo sapiens, UniProt Q99500); test: Activity at human recombinant S1P3 receptor expressed in CHO cells assessed as increase in calcium release by FLIPR assay; assay type: functional, cell-based
[2] = target: T1, Sphingosine 1-phosphate receptor 4 (Homo sapiens, UniProt O95977); test: Activity at human recombinant S1P4 receptor expressed in CHO cells assessed as increase in calcium release by FLIPR assay; assay type: functional, cell-based
T1 sequence (O95977 whole entry): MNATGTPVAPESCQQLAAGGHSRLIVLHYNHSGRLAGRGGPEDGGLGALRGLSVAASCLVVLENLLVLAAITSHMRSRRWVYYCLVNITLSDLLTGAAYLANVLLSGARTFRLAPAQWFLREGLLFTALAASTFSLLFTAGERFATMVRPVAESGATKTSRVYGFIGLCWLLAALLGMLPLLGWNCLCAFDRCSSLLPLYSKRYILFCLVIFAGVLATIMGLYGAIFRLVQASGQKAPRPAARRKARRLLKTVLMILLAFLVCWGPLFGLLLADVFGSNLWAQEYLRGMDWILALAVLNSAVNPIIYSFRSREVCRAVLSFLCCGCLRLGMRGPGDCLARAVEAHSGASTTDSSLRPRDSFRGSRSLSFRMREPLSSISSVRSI

[3] = target: Sphingosine 1-phosphate receptor 1 (Homo sapiens, UniProt P21453); test: Activity at human recombinant S1P1 receptor expressed in CHO cells assessed as increase in calcium release by FLIPR assay; assay type: functional, cell-based
[4] = target: T2, Sphingosine kinase 2 (Homo sapiens) (UniProt Q9NRA0); test: Effect on rate of phosphorylation of human recombinant SPHK2 expressed in HEK293 cells; assay type: cell-based
T2 sequence (whole entry): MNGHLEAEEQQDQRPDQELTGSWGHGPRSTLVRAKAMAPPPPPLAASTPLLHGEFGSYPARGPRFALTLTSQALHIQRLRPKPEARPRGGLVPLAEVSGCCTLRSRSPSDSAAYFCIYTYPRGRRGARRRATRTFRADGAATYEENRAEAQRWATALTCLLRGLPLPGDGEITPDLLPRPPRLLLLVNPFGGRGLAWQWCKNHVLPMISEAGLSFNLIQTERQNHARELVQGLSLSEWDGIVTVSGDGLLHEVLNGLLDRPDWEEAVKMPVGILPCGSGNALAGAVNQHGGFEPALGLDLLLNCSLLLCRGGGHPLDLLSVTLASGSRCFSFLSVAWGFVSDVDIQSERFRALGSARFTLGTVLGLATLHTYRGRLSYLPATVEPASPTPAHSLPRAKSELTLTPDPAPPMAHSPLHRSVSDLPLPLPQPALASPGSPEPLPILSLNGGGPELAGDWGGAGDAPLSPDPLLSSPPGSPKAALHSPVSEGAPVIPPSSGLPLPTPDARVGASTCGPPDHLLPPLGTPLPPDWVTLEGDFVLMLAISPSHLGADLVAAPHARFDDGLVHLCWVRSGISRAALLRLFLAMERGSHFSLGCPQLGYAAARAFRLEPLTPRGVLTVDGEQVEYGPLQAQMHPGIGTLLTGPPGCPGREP

[5] = target: Sphingosine 1-phosphate receptor 5 (Homo sapiens, UniProt Q9H228); test: Activity at human recombinant S1P5 receptor expressed in CHO cells assessed as increase in calcium release by FLIPR assay; assay type: functional, cell-based
Sequence of Sphingosine 1-phosphate receptor 5 (Q9H228 whole entry): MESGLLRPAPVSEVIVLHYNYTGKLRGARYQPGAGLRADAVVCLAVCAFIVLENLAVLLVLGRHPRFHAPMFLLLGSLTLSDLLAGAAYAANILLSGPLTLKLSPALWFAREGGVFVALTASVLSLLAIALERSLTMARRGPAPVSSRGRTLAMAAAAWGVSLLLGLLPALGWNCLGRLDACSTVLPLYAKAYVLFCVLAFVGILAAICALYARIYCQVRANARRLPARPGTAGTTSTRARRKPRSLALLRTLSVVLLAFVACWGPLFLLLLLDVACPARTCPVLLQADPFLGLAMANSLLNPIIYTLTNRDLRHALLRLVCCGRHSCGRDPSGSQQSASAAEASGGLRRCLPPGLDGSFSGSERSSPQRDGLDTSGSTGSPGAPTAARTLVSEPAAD

Sequence of Sphingosine 1-phosphate receptor 3 (Q99500 whole entry): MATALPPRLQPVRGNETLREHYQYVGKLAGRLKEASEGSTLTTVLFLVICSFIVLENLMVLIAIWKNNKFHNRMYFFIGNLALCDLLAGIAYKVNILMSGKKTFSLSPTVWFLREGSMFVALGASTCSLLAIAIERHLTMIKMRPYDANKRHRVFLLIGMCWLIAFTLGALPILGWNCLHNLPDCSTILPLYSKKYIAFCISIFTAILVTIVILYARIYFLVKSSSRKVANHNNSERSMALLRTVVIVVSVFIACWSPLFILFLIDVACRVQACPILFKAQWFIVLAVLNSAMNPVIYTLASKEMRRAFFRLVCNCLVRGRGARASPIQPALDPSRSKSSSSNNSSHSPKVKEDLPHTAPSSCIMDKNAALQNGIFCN
Sequence of Sphingosine 1-phosphate receptor 1 (P21453 whole entry): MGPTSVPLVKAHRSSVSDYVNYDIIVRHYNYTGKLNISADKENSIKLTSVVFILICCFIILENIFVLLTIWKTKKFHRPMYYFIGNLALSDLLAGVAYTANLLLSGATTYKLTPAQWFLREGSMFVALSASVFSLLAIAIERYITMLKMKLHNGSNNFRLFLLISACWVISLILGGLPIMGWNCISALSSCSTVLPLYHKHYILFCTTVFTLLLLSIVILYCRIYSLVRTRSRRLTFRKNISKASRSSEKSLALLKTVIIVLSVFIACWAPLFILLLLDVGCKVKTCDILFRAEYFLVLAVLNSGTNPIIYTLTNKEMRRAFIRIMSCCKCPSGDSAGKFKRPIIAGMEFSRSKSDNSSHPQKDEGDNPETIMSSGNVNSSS

SMILES | EC50 [1] | EC50 [2] | EC50 [3] | Activity [4] | EC50 [5]
CCCCCCCCCCCCC/C=C/[C@@H](O)[C@@H](N)COP(=O)(O)O | 0.0016 µM | 0.0079 µM | 0.00055 µM |  | 
CCCCCCCCc1ccc(CCC(N)(CO)CO)cc1 |  |  |  | 13% | 
CCCCCCCCc1ccc(CC[C@@](N)(CO)COP(=O)(O)O)cc1 |  | 0.0186 µM |  |  | 
CCCCCCCCc1ccc([C@H]2C[C@H](CO)N[C@@H]2CO)cc1 |  |  |  | 55% | 
CCCCCCCCCCCCC/C=C/[C@@H](O)[C@@H](N)CO |  |  |  | 100% | 
CCCCCCCCc1ccc([C@H]2C[C@H](COP(=O)(O)O)N[C@@H]2CO)cc1 | > 1 µM | 0.0074 µM | > 1 µM |  | 0.0102 µM
CCCCCCCCc1ccc([C@@H]2C[C@@H](COP(=O)(O)O)N[C@H]2CO)cc1 | > 1 µM | 0.0168 µM | > 1 µM |  | 0.0058 µM
CCCCCCCCc1ccc([C@@H]2C[C@@H](CO)N[C@H]2CO)cc1 |  |  |  | < 0.1% | 
CCCCCCCCc1ccc([C@H]2C[C@H](CO)N[C@@H]2COP(=O)(O)O)cc1 | > 1 µM | 0.347 µM | > 1 µM |  | 0.134 µM
CCCCCCCCc1ccc([C@@H]2C[C@@H](CO)N[C@H]2COP(=O)(O)O)cc1 | > 1 µM | 0.0331 µM | > 1 µM |  | 0.0213 µM

Reference: ChEMBL document CHEMBL1138396, “Constrained azacyclic analogues of the immunomodulatory agent FTY720 as molecular probes for sphingosine 1-phosphate receptors” (Bioorg Med Chem Lett, 2007)
